The target of one experiment is T1, δ receptor (Mus musculus, UniProt P32300).
T1 construct: The isolated vas deference was filled with Krebes-Henseleit solution; from tissue; host or cells: isolated vas deferens of male ddy mouse
The experiment is described as follows: Ke with NTI in isolated mouse vas deference preparation. The class given is cell-based, mouse (male ddy). Conditions: for Ke NTI: NTI (δ). The procedure: (§1) A male ddy mouse was used in this test. The isolated vas deference was filled with Krebes-Henseleit solution (NaCl 118 mM; KCl 4.7 mM; CaCl2 2.5 mM; KH2 PO4 1.1 mM; NaHCO3 25 mM; and glucose 10 mM) warmed to 37° C. and suspended in a Magnus tube ventilated with 5% carbon dioxide and 95% oxygen. Electrical stimulus was performed at 0.1 Hz for 5.0 ms by means of ring-shaped platinum electrodes located above and below. Tissue contractions were recorded on a polygraph using an isometric transducer.
(§2) Then after adequately washing with nutrient solution and the contraction reaction stabilized, naloxone, a μ […], NTI, a δ […], or norBNI, a κ […], were added and the test compound was again cumulatively added after roughly 20 minutes. The Ke value was calculated using the following calculation formula from the difference in the efficacies of both agonists.
(§3) Ke=[Conc. of added agonist]/(IC50 ratio-1)
(§4) IC50 ratio IC50 in the presence of agonist/IC50 in the absence of agonist

The target in a further experiment is T2, κ receptor (Mus musculus, UniProt P33534).
T2 construct: The isolated vas deference was filled with Krebes-Henseleit solution; from tissue; host or cells: isolated vas deferens of male ddy mouse
Kind of experiment: Ke with norBNI in isolated mouse vas deference preparation. Conditions: for Ke norBNI: norBNI (κ). The experiment is classed as cell-based, mouse (male ddy). The procedure:
as §1, §2, §3, §4

For another experiment, the system named is Wistar rats. Kind of experiment: Evaluation of diuretic action. Conditions: sc, rat, s.c., urine output for 5 h after 20 ml/kg saline oral; for ED200: read-out: ED200, diuretic action (dose giving urine output of 200, non-dosed group = 100). The experiment is classed as in vivo, rat (male Wistar). The procedure:
Evaluation of Diuretic Action
7-8 week old male Wistar rats were used in this test after prohibiting from drinking water for 1 hour before testing. After discharging any urine accumulated in the bladder by gently stimulating the lower abdomens of the animals, the drug was administered subcutaneously. After 30 minutes, the animals were then forcibly given 20 ml/kg of physiological saline orally. The animals were then placed in metabolic cages immediately after administration of the drug (2 animals/cage) and urine output for 5 hours after loading with physiological saline was measured. Drug efficacy was expressed in the form of those doses resulting in urine outputs of 200 and 500, respectively, when the urine output of a non-dosed group was taken to be 100. Those doses were expressed as the ED200 and ED500 values, respectively.

The target of a further experiment is T3, μ receptor (Mus musculus, UniProt P42866).
T3 construct: The isolated vas deference was filled with Krebes-Henseleit solution; from tissue; host or cells: isolated vas deferens of male ddy mouse
The experiment is described as follows: Ke with naloxone in isolated mouse vas deference preparation. The class given is cell-based, mouse (male ddy). On the procedure:
as §1, §2, §3, §4

In the next experiment the test system is ddY mice. Kind of experiment: animal or person. The class given is in vivo, mouse (ddY). Conditions: mouse, s.c. 15 min before i.p. 0.6% acetic acid. The procedure: Analgesic Activity Test Using the Acetic Acid-induced Writhing Method
5 week old ddY mice were used in this test. After intraperitoneal administration of 0.1 ml of 0.6% aqueous acetic acid per 10 g of body weight, the number of writhing reactions that occurred in 10 minutes starting 10 minutes after administration was evaluated for the indicator. The test drug was administered subcutaneously into the backs of the animals 15 minutes before administration of acetic acid.

The subject of experiment [1] is isolated mouse vas deference. The experiment is described as follows: Opioid activity test using the isolated mouse vas deference preparation (electrically stimulated contractions). The class given is cell-based, mouse (male ddy). As to conditions: suppression of electrically stimulated contractions. On the procedure: Opioid Activity Test Using the Isolated Mouse Vas Deference Preparation
as §1, §2

Usually IC50 stands for the midpoint of a concentration-inhibition curve.

Structures can show the parent of a compound that is named as a salt.

T3 sequence (P42866 whole entry): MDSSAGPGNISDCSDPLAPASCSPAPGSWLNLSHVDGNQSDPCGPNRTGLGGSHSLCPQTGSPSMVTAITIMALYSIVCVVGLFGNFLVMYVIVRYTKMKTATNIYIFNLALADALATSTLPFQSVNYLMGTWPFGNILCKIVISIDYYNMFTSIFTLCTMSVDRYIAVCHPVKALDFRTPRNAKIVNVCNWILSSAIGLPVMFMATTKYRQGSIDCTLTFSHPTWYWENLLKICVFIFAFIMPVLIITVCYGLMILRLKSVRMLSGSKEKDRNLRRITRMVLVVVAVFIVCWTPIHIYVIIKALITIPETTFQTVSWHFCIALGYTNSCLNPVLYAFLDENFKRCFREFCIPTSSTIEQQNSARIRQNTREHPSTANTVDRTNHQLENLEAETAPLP
T2 sequence (P33534 whole entry): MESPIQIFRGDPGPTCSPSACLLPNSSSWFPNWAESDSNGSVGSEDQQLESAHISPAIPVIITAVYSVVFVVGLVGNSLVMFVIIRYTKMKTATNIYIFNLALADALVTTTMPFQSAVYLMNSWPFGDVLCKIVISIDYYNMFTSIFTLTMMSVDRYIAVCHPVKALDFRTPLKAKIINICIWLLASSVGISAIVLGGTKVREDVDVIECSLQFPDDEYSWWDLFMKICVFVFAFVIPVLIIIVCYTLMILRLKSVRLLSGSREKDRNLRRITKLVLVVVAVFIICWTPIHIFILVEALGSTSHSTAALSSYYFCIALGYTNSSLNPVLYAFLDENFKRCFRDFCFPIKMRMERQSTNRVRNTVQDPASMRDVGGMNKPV
T1 sequence (P32300 whole entry): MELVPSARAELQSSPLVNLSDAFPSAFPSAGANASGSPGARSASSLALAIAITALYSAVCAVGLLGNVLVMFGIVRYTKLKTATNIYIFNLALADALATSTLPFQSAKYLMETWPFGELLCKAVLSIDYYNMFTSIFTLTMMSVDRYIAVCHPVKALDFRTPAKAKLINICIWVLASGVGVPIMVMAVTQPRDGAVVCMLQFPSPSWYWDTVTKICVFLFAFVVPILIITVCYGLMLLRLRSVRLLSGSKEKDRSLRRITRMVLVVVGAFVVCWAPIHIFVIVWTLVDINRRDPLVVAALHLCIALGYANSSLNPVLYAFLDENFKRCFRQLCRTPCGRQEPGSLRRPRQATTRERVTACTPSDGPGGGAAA

As for `CN(C(=O)OCc1ccccc1)[C@H]1CC[C@@]2(O)[C@H]3Cc4ccc(O)c5c4[C@@]2(CCN3CC2CC2)[C@H]1O5` [Compound 42, 17-cyclopropylmethyl-3,14β-dihydroxy-4,5α-epoxy-6α-(N-methylbenzyloxycarbamido)morphinan.tartrate], the “Ke NTI” value on δ receptor worked out at 63.5 nM. Also, at κ receptor, the “selective agonist for κ receptors (in words)” value is recorded as “selective agonists for κ receptors” and the “Ke norBNI” value is recorded as 0.905 nM. For the same molecule, the ED500 in the experiment with Wistar rats (read-out: ED500, diuretic action (dose giving urine output of 500, non-dosed group = 100)) turned out to be 6.1 µg/kg. The ED200 in the experiment on Wistar rats came out at 0.85 µg/kg. Besides, at μ receptor, the “Ke Naloxone” value amounted to 186 nM. For the same molecule, the “ED50, acetic acid writhing” value in the experiment with ddY mice came to 1.36 µg/kg.
For the molecule `CN(C(=O)CSc1ccccc1)[C@H]1CC[C@@]2(O)[C@H]3Cc4ccc(O)c5c4[C@@]2(CCN3CC2CC2)[C@H]1O5` [Compound 45, 17-cyclopropylmethyl-4,5α-epoxy-3,14,β-dihydroxy-6α-(N-methylthiophenoxyacetamido)morphinan.tartrate], the “Ke NTI” value on δ receptor worked out at 135 nM. In addition, at κ receptor, the “selective agonist for κ receptors (in words)” value is “selective agonists for κ receptors” and the “Ke norBNI” value was determined as 0.416 nM. Besides, in the experiment with Wistar rats, the ED200 worked out at 8.1 µg/kg. For the same molecule, the “Ke Naloxone” value on μ receptor was determined as 26.5 nM. Also, the “ED50, acetic acid writhing” value with ddY mice came to 3.8 µg/kg.
`CCCCOC(=O)N(C)[C@H]1CC[C@@]2(O)[C@H]3Cc4ccc(O)c5c4[C@@]2(CCN3CC2CC2)[C@H]1O5` [Compound 47, 17-cyclopropylmethyl-4,5α-epoxy-3,14β-dihydroxy-6α-(N-methylbutyroxycarbamido)morphinan.tartrate]: the “Ke NTI” value on δ receptor was found to be 10.4 nM. Further, on κ receptor, the “selective agonist for κ receptors (in words)” value is “selective agonists for κ receptors” and the “Ke norBNI” value was 0.140 nM. For the same molecule, in the experiment with Wistar rats, the ED200 is 1.6 µg/kg. On μ receptor, the “Ke Naloxone” value is given as 63.5 nM. Moreover, in the experiment on ddY mice, the “ED50, acetic acid writhing” value stood at 0.52 µg/kg.
With `CN(C(=O)/C=C/c1cccc(C(F)(F)F)c1)[C@@H]1CC[C@@]2(O)[C@H]3Cc4ccc(O)c5c4[C@@]2(CCN3CC2CC2)[C@H]1O5` [Compound 60, 17-cyclopropylmethyl-3,14β-dihydroxy-4,5α-epoxy-60-(N-methyl-3-trifluoromethylcinnaiamido)morphinan.tartrate], the “Ke NTI” value on δ receptor came to 291 nM. On κ receptor, the “selective agonist for κ receptors (in words)” value is “selective agonists for κ receptors” and the “Ke norBNI” value is recorded as 3.20 nM. Further, the IC50 in experiment [1] amounted to 0.468 nM.
Take `CN(C(=O)/C=C/C1CCCCC1)[C@@H]1CC[C@@]2(O)[C@H]3Cc4ccc(O)c5c4[C@@]2(CCN3CC2CC2)[C@H]1O5` [Compound 68, 17-cyclopropylmethyl-3,14,β-dihydroxy-4,5α-epoxy-6β-(N-methyl-3-cyclohexylacrylamido) morphinan.tartrate]: the “Ke NTI” value at δ receptor worked out at 143 nM. Besides, on κ receptor, the “selective agonist for κ receptors (in words)” value was “selective agonists for κ receptors” and the “Ke norBNI” value is on record as 1.08 nM. Further, 0.457 nM corresponded to half-maximal inhibition in experiment [1] (IC50). Also, in the experiment on Wistar rats, the ED200 was 1.6 µg/kg. Further, the “Ke Naloxone” value on μ receptor worked out at 5710 nM.
For `Cc1cccc(/C=C/C(=O)N(C)[C@@H]2CC[C@@]3(O)[C@H]4Cc5ccc(O)c6c5[C@@]3(CCN4CC3CC3)[C@H]2O6)c1` [Compound 69, 17-cyclopropylmethyl-3,14β-dihydroxy-4,5α-epoxy-6β-(N-methyl-3-methylcinnamamido)morphinan.hydrochloride], at δ receptor, the “Ke NTI” value is given as 64.5 nM. Moreover, at κ receptor, the “selective agonist for κ receptors (in words)” value was “selective agonists for κ receptors” and the “Ke norBNI” value was found to be 1.95 nM. The same molecule gave an IC50 in experiment [1] of 0.32 nM. Moreover, the “Ke Naloxone” value on μ receptor stood at 1780 nM.
Take `CN(C(=O)/C=C/c1cccc(F)c1)[C@H]1CC[C@@]2(O)[C@H]3Cc4ccc(O)c5c4[C@@]2(CCN3CC2CC2)[C@H]1O5` [Compound 96, 17-cyclopropylmethyl-3,14β-dihydroxy-4,5α-epoxy-6α-(N-methyl-3-fluorocinnamamido)morphinan.tartrate]: on δ receptor, the “selective agonist for δ receptors (in words)” value is recorded as “selective agonists for δ receptors” and the “Ke NTI” value came out at 1.61 nM. For the same molecule, the “Ke norBNI” value at κ receptor came to 4.21 nM. The ED200 with Wistar rats came to 1.3 µg/kg. Further, the “Ke Naloxone” value at μ receptor was 32.5 nM. Also, the “ED50, acetic acid writhing” value in the experiment on ddY mice came to 0.86 µg/kg.
Consider `CN(C(=O)CC(=O)c1ccccc1)[C@H]1CC[C@@]2(O)[C@H]3Cc4ccc(O)c5c4[C@@]2(CCN3CC2CC2)[C@H]1O5` [Compound 98, 17-cyclopropylmethyl-3,14β-dihydroxy-4,5α-epoxy-6α-(N-methylbenzoylacetamido)morphinan.tartrate], for which, on κ receptor, the “selective agonist for κ receptors (in words)” value was “selective agonists for κ receptors” and the “Ke norBNI” value turned out to be 1.35 nM. Besides, the ED200 in the experiment on Wistar rats came out at 6.5 µg/kg. Further, the “ED50, acetic acid writhing” value with ddY mice came to 6.8 µg/kg.
Turning to `CN(C(=O)/C=C/c1ccccc1)[C@@H]1CC[C@@]2(O)[C@H]3Cc4ccc(O)c5c4[C@@]2(CCN3CC2CC2)[C@H]1O5` [Compound 99, 17-cyclopropylmethyl-3,14β-dihydroxy-4,5α-epoxy-6β-(N-methylcinnamamido)morphinan.hydrochloride], at κ receptor, the “selective agonist for κ receptors (in words)” value is given as “selective agonists for κ receptors” and the “Ke norBNI” value is 0.652 nM. Further, the ED200 with Wistar rats came out at 1.1 µg/kg. Moreover, the “Ke Naloxone” value on μ receptor stood at 94.5 nM. In addition, in the experiment with ddY mice, the “ED50, acetic acid writhing” value is 1.8 µg/kg.
As for `CCC/C=C/C(=O)N(C)[C@@H]1CC[C@@]2(O)[C@H]3Cc4ccc(O)c5c4[C@@]2(CCN3CC2CC2)[C@H]1O5` [Compound 100, 17-cyclopropylmethyl-3,14β-dihydroxy-4,5α-epoxy-6β-(N-methyl-trans-2-hexenamido)morphinan.tartrate], on κ receptor, the “selective agonist for κ receptors (in words)” value is on record as “selective agonists for κ receptors” and the “Ke norBNI” value is listed as 0.0717 nM. Further, 0.647 nM corresponded to half-maximal inhibition in experiment [1] (IC50). Besides, the “Ke Naloxone” value at μ receptor amounted to 1797 nM.
With `CN(C(=O)/C=C/c1cccc(F)c1)[C@@H]1CC[C@@]2(O)[C@H]3Cc4ccc(O)c5c4[C@@]2(CCN3CC2CC2)[C@H]1O5` [Compound 102, 17-cyclopropylmethyl-3,14β-dihydroxy-4,5α-epoxy-6β-(N-methyl-3-fluorocinnamamido)morphinan.tartrate], the “Ke NTI” value on δ receptor was found to be 276 nM. Moreover, at κ receptor, the “selective agonist for κ receptors (in words)” value is listed as “selective agonists for κ receptors” and the “Ke norBNI” value was determined as 2.37 nM. Also, half-maximal inhibition in experiment [1] (IC50) required 1.6 nM. Also, in the experiment with Wistar rats, the ED200 came to 1.4 µg/kg.
Turning to `CC(=O)Oc1ccc2c3c1O[C@H]1[C@H](N(C)C(=O)/C=C/c4ccccc4)CC[C@@]4(O)[C@@H](C2)N(CC2CC2)CC[C@]314` [Compound 140, 17-Cyclopropylmethyl-3-acetoxy-14β-hydroxy-4,5α-epoxy-6β-(N-methylcinnamamido)morphinan.tartrate], the “Ke NTI” value at δ receptor was determined as 261 nM. Besides, on κ receptor, the “selective agonist for κ receptors (in words)” value is on record as “selective agonists for κ receptors” and the “Ke norBNI” value turned out to be 1.06 nM. Also, the “Ke Naloxone” value at μ receptor was found to be 320 nM. For the same molecule, the “ED50, acetic acid writhing” value in the experiment with ddY mice was 3.4 µg/kg.

Source of the values: US6277859A, “Morphinan derivative and its pharmaceutical applications” (priority 1992, dated 2001).
